# Marks after values point to notes of the source that are not given here.
# Tests used:
# [1] = system: HBL-100 non-tumour line from healthy mammary ductal epithelium; assay: In-vitro antiproliferative activity, MTT test; assay type: cell-based, human; conditions: 5 days treatment, MTT on day 6, read-out: IC50, concentration necessary to reduce cell growth to 50% of control
# Procedure: (§1) Antiproliferative activity of the conjugates was determined on 2 lines of human mammary carcinoma (MCF-7, MDA-MB-231), and on 2 lines of human ovary carcinoma (SK-OV-3, IGR-OV1) with different Reduced Folate Carrier (RFC) expression, and on a non-tumour line originating from healthy mammary ductal epithelium (HBL-100 line). Cells were incubated in 96-well plates for 5 days in complete medium (consisting of DMEM/F12, with 10% FBS, foetal bovine serum, 1% L-glutamine 100× (200 mM) and 1% penicillin-streptomycin (Euroclone) for MCF-7, IGROV-1 and MDA-MB-231; RPMI-1640 with 10% FBS, foetal bovine serum, 1% L-glutamine 100× (200 mM) and 1% penicillin-streptomycin (Euroclone) for SKOV-1; McCoy's with 10% FBS, foetal bovine serum, 1% L-glutamine 100× (200 mM) and 1% penicillin-streptomycin (Sigma) for HBL-100 at 37° C. and controlled atmosphere (5% CO2), with MTX-Na or with conjugate; the conjugates were tested at doses equimolar with those of MTX-Na, in the range 1-30 nM. Cytotoxicity was determined on day 6 (after 5 days treatments) by the MTT test, by measuring cell viability as the cell metabolic capacity to transform the tetrazolium salt of MTT in the blue formazan, by mitochondrial dehydrogenases; the blue colour is read at 570 nm with a spectrophotometer. The following conjugates were tested.
# [2] = system: SK-OV-3 human ovary carcinoma cells; assay: In-vitro antiproliferative activity, MTT test; assay type: cell-based; conditions: 5 days treatment, MTT on day 6, read-out: IC50, concentration necessary to reduce cell growth to 50% of control
# Procedure: as §1
# [3] = system: MCF-7 human mammary carcinoma cells; assay: In-vitro antiproliferative activity, MTT test; assay type: cell-based; conditions: 5 days treatment, MTT on day 6, read-out: IC50, concentration necessary to reduce cell growth to 50% of control
# Procedure: as §1
# [4] = system: IGR-OV1 human ovary carcinoma cells; assay: In-vitro antiproliferative activity, MTT test; assay type: cell-based; conditions: 5 days treatment, MTT on day 6, read-out: IC50, concentration necessary to reduce cell growth to 50% of control
# Procedure: as §1
# B16/F10 melanoma cells = assay: In-vivo antiproliferative activity: liver metastases after intraspleen implant of B16/F10 melanoma; design: species or system BD2F1 mice; conditions: for Animals free of macroscopically detectable liver metastases over total number of mice / Mice with metastases larger than 3 mm / Mice with more than 3 visible hepatic tumour nodules / Spleen weight: Day 21
# Procedure: BD2F1 mice weighing 18-20 g were implanted intraspleen (i.s) with 100.000 B16/F10 melanoma cells on Day 0, under sterile conditions and Zoletil® (70 mg/kg), anaesthesia, following surgical opening of peritoneum and spleen immobilisation. Tumour cells, suspended in diluted Matrigel® (150 μg/ml), were injected i.s. in a volume of 0.05 ml. The B16F10 melanoma cells were cultured in Modified Eagle Medium. Cells were maintained in a humidified 5% CO2 atmosphere at 37° C. Animals were then randomly divided into 5 groups (each of 7-8 female), implanted i.s. with 100.000 B16/F10 melanoma cells on Day 0, were treated i.v. (on Days 3, 6 and 9) with HA-MTX at 2, 1 and 0.50 mg/kg/day or MTX-Na at 8.5, 6 and 3 mg/kg/day. Doses are referred to equivalents of MTX. The data originate from 4 separate experiments.
# The evaluation of livers and counting of liver metastases under a low power stereo microscope equipped with a calibrated grid was performed on Day 21. Livers were then stored in formaldehyde for preparation for light microscopy observations.
# [5] = 3 mg MTX/kg/die i.v. on days 3, 6, 9
# [6] = 6 mg MTX/kg/die i.v. on days 3, 6, 9
# [7] = 8.5 mg MTX/kg/die i.v. on days 3, 6, 9
# [8] = 0.5 mg MTX/kg/die i.v. on days 3, 6, 9
# [9] = 1 mg MTX/kg/die i.v. on days 3, 6, 9
# [10] = 2 mg MTX/kg/die i.v. on days 3, 6, 9
molecule,measurement,setting,value
6-O-Butyryl-6-O-methotrexyl-hyaluronic acid [Ex 24],IC50,[1],2.11 µM
same,IC50,[2],1.67 µM
same,IC50,[3],1.7 µM
same,IC50,[4],2.16 µM
6-O-acetyl-6-O-methotrexyl-hyaluronic acid [Ex 21],IC50,[1],2.05 µM
same,IC50,[2],1.82 µM
same,IC50,[3],1.97 µM
same,IC50,[4],2.74 µM
"CN(Cc1cnc2nc(N)nc(N)c2n1)c1ccc(C(=O)N[C@@H](CCC(=O)O)C(=O)O)cc1 [MTX-Na, methotrexate, reference compound]",Animals free of macroscopically detectable liver metastases over total number of mice,B16/F10 melanoma cells; [5],6/16*
same,Mice with metastases larger than 3 mm,B16/F10 melanoma cells; [5],19%
same,Mice with more than 3 visible hepatic tumour nodules,B16/F10 melanoma cells; [5],38%
same,Spleen weight,B16/F10 melanoma cells; [5],227 ± 36 mg
same,Animals free of macroscopically detectable liver metastases over total number of mice,B16/F10 melanoma cells; [6],7/14**
same,Mice with metastases larger than 3 mm,B16/F10 melanoma cells; [6],0%
same,Mice with more than 3 visible hepatic tumour nodules,B16/F10 melanoma cells; [6],21%
same,Spleen weight,B16/F10 melanoma cells; [6],159 ± 7 mg
same,Animals free of macroscopically detectable liver metastases over total number of mice,B16/F10 melanoma cells; [7],8/16**
same,Mice with metastases larger than 3 mm,B16/F10 melanoma cells; [7],0%
same,Mice with more than 3 visible hepatic tumour nodules,B16/F10 melanoma cells; [7],13%
same,Spleen weight,B16/F10 melanoma cells; [7],149 ± 24 mg
same,IC50,[1],0.5 µM
same,IC50,[2],0.041 µM
same,IC50,[3],0.081 µM
same,IC50,[4],0.14 µM
HA-MTX [Ex 18],Animals free of macroscopically detectable liver metastases over total number of mice,B16/F10 melanoma cells; [8],6/15**
same,Mice with metastases larger than 3 mm,B16/F10 melanoma cells; [8],13%
same,Mice with more than 3 visible hepatic tumour nodules,B16/F10 melanoma cells; [8],27%
same,Spleen weight,B16/F10 melanoma cells; [8],155 ± 16 mg
same,Animals free of macroscopically detectable liver metastases over total number of mice,B16/F10 melanoma cells; [9],9/16***
same,Mice with metastases larger than 3 mm,B16/F10 melanoma cells; [9],0%
same,Mice with more than 3 visible hepatic tumour nodules,B16/F10 melanoma cells; [9],31%
same,Spleen weight,B16/F10 melanoma cells; [9],199 ± 27 mg
same,Animals free of macroscopically detectable liver metastases over total number of mice,B16/F10 melanoma cells; [10],14/14***^§
same,Mice with metastases larger than 3 mm,B16/F10 melanoma cells; [10],0%^; 0%°
same,Mice with more than 3 visible hepatic tumour nodules,B16/F10 melanoma cells; [10],0%^; 0%°
same,Spleen weight,B16/F10 melanoma cells; [10],150 ± 37 mg
same,"Dose giving comparable liver metastasis reduction, as fraction of the MTX-Na dose",B16/F10 melanoma cells; 1 and 0.5 mg/kg/day vs 6 and 3 mg/kg/day MTX-Na,⅙
same,Prevention of formation of liver metastasis,B16/F10 melanoma cells; both after i.v. and i.p. administration,effective in preventing the formation of liver metastasis
same,Effect on liver metastases of B16/F10 melanoma,"B16/F10 melanoma cells; i.v. 2 mg/kg/day (MTX equivalents) on days 3,6,9",complete disappearance of liver metastases

# Source: patent publication US20080200428A1, “Antiproliferative Drug” (priority 2005, published 2008)
